The record followed here is the SangsterLogP compilation.

For `CCCCN(CCCC)SN(C)C(=O)Oc1cccc2c1OC(C)(C)C2`, the logP (usually a log measure of how a compound divides between an organic and an aqueous phase) was found to be 5. For `Cc1cc(O)ccc1Cl`, the logP is 3.1. For `CC(=O)Oc1c(I)cc(C#N)cc1I` the value was 3.8; for `O=[N+]([O-])c1ccc(Cl)c(O)c1`, 2.4; for `COC(=O)c1cc(I)c(O)c(I)c1`, 3.9. `COc1c(I)cc(C#N)cc1[N+](=O)[O-]` showed a logP of 2.9. Compound `O=C(O)c1cc(I)c(O)c(I)c1` displayed a logP of 3.7. For `COc1c(I)cc(C#N)cc1I` the value was 4.1. The result for `Fc1c(F)c(F)c(C(F)(F)F)c(F)c1F` reads 3; that for `CSc1c(C)cc(O)cc1C`, 2.8; that for `CNC(=O)Oc1c(I)cc(C#N)cc1I`, 3.3. Turning to `CCCCCCCC(=O)Oc1c(I)cc(C#N)cc1I`, the logP was 6.8. The result for `CSc1ccc(O)cc1C` reads 2.3. For `N#Cc1cc(I)cc(I)c1O` the value was 4.1. For `N#Cc1cc(I)c(O)c(I)c1` the value was 3.8; for `N#Cc1cc(I)c(O)c([N+](=O)[O-])c1`, 2.7. The compound `COc1ccccc1[N+](=O)[O-]` came in with a lipophilicity (logP) of 2. For `NC(=S)c1cc(I)c(O)c(I)c1` the value was 3.2. `Cc1cc(I)c(O)c(I)c1`: the logP was 4.2. For `CC(C)C(=O)Oc1c(I)cc(C#N)cc1I` the value was 4.6; for `Fc1c(F)c(F)c(S)c(F)c1F`, 2; for `O=C(O)c1cc(Cl)ccc1O`, 2.9. For `CS(=O)(=O)c1c(F)c(F)c(F)c(F)c1F` the value was 1.2.
